Measured values published in patent publication US9290464B2 (priority 2010, dated 2016).

Columns and labels:
[1] = test system: catalase, superoxide dismutase (SOD) and glutathione peroxidase (GPx); test: Activities of antioxidative enzymes in MPP+-treated cells; assay type: cell-based, human; conditions: 2 mM MPP+, 24 hours; FIG. 21
Protocol: In this embodiment, MAO-B-deficient human neuroblastoma SH-SY5Y cells (Korean Cell Line Bank) were used. The SH-SY5Y cells were distributed into a 6-well plate at a concentration of 1.8×10^5 cells/well, and then incubated with 5% of CO2 at 37° C. for 24 hours. The resulting cells were divided into three groups, 2 mM of MPP^+ was added to each group, two of the three groups were respectively treated 0.1, and the resultant was further incubated with 5% of CO2 at 37° C. for 24 hours. The control group which was not treated with MPP^+ was incubated under the same conditions as described above. Subsequently, cell extracts were obtained from the cells, and thus the activities of antioxidative enzymes, i.e., catalase, superoxide dismutase (SOD) and glutathione peroxidase (GPx) were measured.

[2] = test system: 6-OHDA-induced rat; test: Decrease in neurons of substantia nigra pars compacta in 6-OHDA-induced rat (TH immunohistochemistry and cresyl violet staining); assay type: in vivo, Wistar rats; conditions: FIG. 6
Protocol: Wistar rats provided by ORIENT BIO INC. (excipient and CBI n=7, rasagiline n=6; 6-week-old; 20 male rats) were used as an experimental model. One-side injection of 3 μl of a solution containing 20 μg/μl of 6-OHDA was performed on the striatum of each rat (position: front—1.0 mm, rear—3.0 mm, postabdomen side—5.0 mm), thereby inducing the degeneration of neurons in the striatum. […] 4, 5 and 6 weeks after the last day of administration, an apomorphine-induced rotation test was performed on each group. The apomorphine-induced rotation test was performed in such a manner that 0.5 mg/kg of apomorphine was administered to each group of rats via intraperitoneal injection, each group of rats was placed in a rotor chamber, and the rotary movement thereof was recorded for 45 minutes, and thus the number of rotation per minute of each group of rats was measured to determine the average value thereof. In addition, after the apomorphine-induced rotation test performed 6 weeks after the last day of administration, each group of rats was sacrificed, and thus the extent of a decrease in neurons of substantia nigra pars compacta was confirmed using immunohistochemistry staining using an antibody against tyrosine hydroxylase and cresyl violet staining.

Structure (SMILES): NC(=O)OCc1cc(-c2ccc(OCc3ccccc3)cc2)no1 [CBI, carbamic acid 3-(4-benzyloxy-phenyl)-isoxazole-5-yl methylester]
- activity of the antioxidative enzymes decreased by MPP+ [1]: an increase in a decreased activity of the antioxidative enzymes
- effect on decrease in neurons compared with rasagiline group ([2]; 1 mg/kg oral each): superior effect
- extent of a decrease in neurons of substantia nigra pars compacta ([2]; 1 mg/kg oral, 1 hour before 6-OHDA and once every other day for 6 weeks): significantly decreased extent of a decrease in neurons
